According to publication PMC11247486, “Improving the In Vivo Stability of [^52Mn]Mn(II) Complexes with 18-Membered Macrocyclic Chelators for PET Imaging” (Journal of Medicinal Chemistry, 2024):
Where two headings read alike, the source gives them in different places. Values belong to the compound of their own block, whether it stands above or below them.

Columns and labels:
[1] = cited from earlier work
[2] = cited from earlier work; remark: listed apart in the source
[3] = cited from earlier work; for pMn: [Mn^2+] = [L] = 10 μM at pH = 7.4
[4] = mice; cited from earlier work
[5] = Ex vivo biodistribution after PET/CT; type: in vivo, mice
Description: [^52Mn]Mn-CHXPYAN and [^52Mn]Mn-PYAN radiocomplexes were evaluated in vivo through 90 min dynamic PET/CT imaging of heathy mice followed by an ex vivo biodistribution analysis. Similarly, [^52Mn]MnCl2 was also studied as a control.
[^52Mn]Mn-CHXPYAN and [^52Mn]Mn-PYAN were synthesized with molar specific activities of 80 and 60 MBq/μmol, respectively. 1.04 ± 0.07 MBq (28 ± 2 μCi) of the radiocomplexes in 100 μL injection doses was prepared. The mice (n = 4 per group) were anesthetized with 2.5% isoflurane in oxygen and were injected via the retroorbital sinus. For comparison purposes, 1.04 ± 0.07 MBq (28 ± 2 μCi) of [^52Mn]MnCl2, pH 7 was also injected. After injection, mice were imaged on a Sofie GNEXT PET/CT scanner for a 90 min dynamic scan (9 frames of 10 min each) followed by a 3 min CT at 80 kVp for anatomical reference. PET images were reconstructed via 3D-OSEM (Ordered Subset Expectation Maximization) algorithm (24 subsets and 3 iterations), with random, attenuation, and decay correction, and CT was reconstructed with the modified Feldkamp algorithm and analyzed using VivoQuant 4.0 (Invicro Imaging Service and Software, Boston MA) software. After imaging, mice were euthanized, and organs were collected, weighed, and counted for associated radioactivity on an automated gamma counter. Radioactivity uptake was calculated as the percent injected dose per gram of tissue (% ID/g). Following the reconstruction of the images, ROIs (heart, liver, kidneys, muscle, and bone) were hand-drawn to determine the SUVs using the VivoQuant imaging software.

[6] = pH-potentiometric titrations, ligand protonation constants; type: physicochemical; settings: 0.15 M NaCl, 25°C
Description: Chelator protonation constants (log Ki^H) defined by eq 1 were determined using pH-potentiometric titrations, which afforded four protonation constants for each chelator attributed to the protonation of the amine N atoms (Table 2, and standard deviations are shown in parentheses). [drawing 1] 1 where i = 1, 2...4. The first two protonation constants adopt nearly identical values for both chelators, while the third and fourth protonation constants are much lower for CHXPYAN than for PYAN, which is consistent with the results obtained by Jackels et al.[25] The high rigidity of CHXPYAN likely forces the protonated amines to be placed at a shorter distance than in PYAN, reducing the values of log K3^H and log K4^H for the cyclohexyl derivative due to electrostatic effects. […] The structurally related 18-membered macrocycle 18-ane-N6 is characterized by a higher basicity compared with PYAN and CHXPYAN, as expected due to the increased number of amine N atoms and its higher flexibility.[43]
(§1) The protonation constants of PYAN and CHXPYAN and the stability constants of Mn(II) complexes were determined by pH-potentiometric titrations. The metal-to-ligand concentration ratio was 1:1 (the concentration of the ligand was generally 0.002 M). For the pH measurements and titrations, a Metrohm 888 Titrando titration workstation and Metrohm-6.0234.110 combined electrode was used. Equilibrium measurements were carried out at a constant ionic strength (0.15 M NaCl) in 6 mL samples at 25 °C. The solutions were stirred, and N2 was bubbled through them. The titrations were made in the pH range of 1.7–12.0. KH-phthalate (pH = 4.005) and borax (pH = 9.177) buffers were used to calibrate the pH meter. For the calculation of [H^+] from the measured pH values, the method proposed by Irving et al. was used as follows.[59] A 0.01 M HCl solution was titrated with a standardized NaOH solution at 0.15 M NaCl ionic strength. The differences (A) between the measured (pHread) and calculated pH (−log[H^+]) values were used to obtain the equilibrium H^+ concentration from the pH values measured in the titration experiments (A = 0.04). For the equilibrium calculations, the stoichiometric water ionic product (pKw) was also needed to calculate the [OH^–] values under basic conditions. The VNaOH – pHread data pairs of the HCl–NaOH titration obtained in the pH range of 10.5–12.0 were used to calculate the pKw value (pKw = 13.77). The protonation and stability constants were calculated with the PSEQUAD program.[60]

[7] = Transmetalation (dissociation) kinetics of the Mn(II) complexes with Cu2+; type: physicochemical; settings: 0.15 M NaCl, 25 °C
Description: There is a wide consensus among the coordination chemistry community that kinetic inertness is more important for the safe use of metal complexes for imaging applications than thermodynamic stability.[8],[49],[50] Thus, we conducted a detailed investigation of the transmetalation kinetics of the Mn-PYAN and Mn-CHXPYAN complexes, by following their exchange reactions with Cu^2+ in the pH range of 2.5–4.5 (eq 3). [drawing 3] 3
All reactions were carried out in the presence of a large excess of Cu^2+ in order to guarantee the pseudo-first-order kinetic conditions. The transmetalation of Mn-PYAN in the pH range ∼2.0–4.5 is very fast, and thus the rates of the reactions were measured using the stopped-flow technique. Conversely, the exchange reactions of the Mn-CHXPYAN complex are slow and could be studied by using conventional methods. The transmetalation reactions of Mn-PYAN and Mn-CHXPYAN were monitored by following the formation of the corresponding Cu(II) complexes at 295 nm.
The kd values increase upon increase in [H^+] and are independent of the concentration of Cu^2+ as it was found for Mn-PCTA, Mn-PC3AM, and Mn-bispidine complexes.[49],[51] […] The increase in the kd values with increasing H^+ concentration can be interpreted in terms of the extremely slow spontaneous (k0, eq 4) and the proton-assisted (k*[Mn(HL), eq 6) dissociation of Mn(II) complexes. The saturation behavior of the plots of kd versus [H^+] (Figure 5) is characteristic for the equilibrium formation and the accumulation of the *[Mn(HL)] intermediate characterized by the *KH protonation constant (eq 5). The analysis of the rate constants obtained for Mn-CHXPYAN indicates a second-order dependence of kd on [H^+], which can be explained by the proton-assisted dissociation of the *[Mn(HL)] intermediate (k^H*[Mn(HL)], eq 7). [drawing 4] 4 [drawing 5] 5 [drawing 6] 6 [drawing 7] 7
In the presence of excess of the exchanging ion, the transmetalation can be treated as a pseudo-first-order process, and the rate of reactions can be expressed with eq 8, where kd is a pseudo-first-order rate constant and [MnL]t is the total concentration of the complex. [drawing 8] 8
Through consideration of all the possible pathways, the rate of the transmetalation of Mn-PYAN and Mn-CHXPYAN with Cu^2+ can be expressed by eq 9 [drawing 9] 9 Considering the total concentration of the Mn(II) complex ([MnL]t = [MnL] + [*Mn(HL)], as well as the equation defining the protonation constant for the formation of the *[Mn(HL)] intermediate (eq 5) and eq 8, the pseudo-first-order rate constant can be expressed as follows [drawing 10] 10 where k1 = k*[Mn(HL)] × *KH and k2 = k^H*[Mn(HL)] × *KH. The rate and protonation constants characterizing the transmetalation of Mn-PYAN and Mn-CHXPYAN with Cu^2+ have been calculated by fitting the kd values presented in Figure 5 to eq 10 and the values obtained are compared with the corresponding values of Mn-DOTA, Mn-DO3A, Mn-PCTA, Mn-PC3AM^H, and Mn-bispidine in Table 3.
Rates of the metal exchange reactions of Mn-PYAN and Mn-CHXPYAN with Cu^2+ were measured by spectrophotometry by following the formation of the related Cu(II) complexes at 295 nm with an Applied Photophysics DX-17MV stopped-flow instrument and PerkinElmer Lambda 365 UV–vis spectrophotometer using 1.0 cm cells, respectively. The concentration of Mn-PYAN and Mn-CHXPYAN was 1.0 × 10^–4 M, whereas the concentration of Cu^2+ was 10 and 20 times higher in order to guarantee pseudo-first-order conditions. The temperature was maintained at 25 °C and the ionic strength of the solutions was kept constant with 0.15 M NaCl. The exchange rates were studied in the pH range of ca. 2.0–4.5. To keep the pH values constant, monochloroacetic acid (pH range 2.0–3.3), 1,4-dimethylpiperazine (pH range 3.3–4.1), and N-methylpiperazine (pH range 4.1–4.5) buffers were used (0.01 M). […]

[8] = pH-potentiometric titrations, stability constants of the Mn(II) complexes; type: physicochemical; settings: 0.15 M NaCl, 25°C
Description: The stability constants of the Mn(II) complexes with PYAN and CHXPYAN defined by eq 2 were also determined through pH-potentiometric titrations. [drawing 2] 2
as §1

[9] = Mn(II) complex, 0.15 M NaCl, 25 °C
[10] = Mn(II) complex, 0.1 M Me4NCl, 25 °C
[11] = healthy mice, 1.5 h postinjection, mean ± SD, n = 4

Compound: O=C(O)CN1CCNCCN(CC(=O)O)CCN(CC(=O)O)CC1 [DO3A^3–, 1,4,7,10-tetraazacyclododecane-1,4,7-triacetate]
k1 [1, 9]: 0.45 M^–1 s^–1 | k2 [1, 9]: 3.2 × 10^2 M^–2 s^–1 | kd at pH = 7.4 [1, 9]: 1.8 × 10^–8 s^–1

Compound: C1CNCCNCCNCCNCCNCCN1 [18-ane-N6, 1,4,7,10,13,16-Hexa-Azacyclo-Octadecane, reference compound]
log K1^H ([2]; 0.2 M NaClO4, 25°C): 10.19 | log K2^H ([2]; 0.2 M NaClO4, 25°C): 9.23 | log K3^H ([2]; 0.2 M NaClO4, 25°C): 8.73 | log K4^H ([2]; 0.2 M NaClO4, 25°C): 4.09 | log K5^H ([2]; 0.2 M NaClO4, 25°C): 2 | log K6^H ([2]; 0.2 M NaClO4, 25°C): <1 | log KMnL ([3]; 0.2 M NaClO4, 25°C): 10.5 | pMn ([3]; 0.2 M NaClO4): 5.05

Compound: O=C(O)CN1CCN(CC(=O)O)CCN(CC(=O)O)CCN(CC(=O)O)CC1 [DOTA^4–, 1,4,7,10-tetraazacyclododecane-1,4,7,10-tetraacetate]
k0 ([1]; Mn(II) complex of the chelator, 0.1 M Me4NCl, 25 °C): 1.8 × 10^–7 s^–1 | kd at pH = 7.4 ([1]; Mn(II) complex, 0.1 M Me4NCl, 25 °C, calculated using a Zn^2+ concentration of 10^–5 M): 1.8 × 10^–7 ^a s^–1 | k1 [1, 10]: 4.0 × 10^–2 M^–1 s^–1 | k2 [1, 10]: 1.6 × 10^3 M^–2 s^–1 | k3^Zn [1, 10]: 1.5 × 10^–5 M^–1 s^–1 | log*KH [1, 10]: 4.26

Compound: O=C(O)CN(CCN(CC(=O)O)CC(=O)O)CCN(CC(=O)O)CC(=O)O [DTPA^5–, diethylenetriamine-N,N,N′,N″,N″-pentaacetate, reference compound]
log K1^H ([2]; 0.15 M NaCl, 25°C): 9.97 | log K2^H ([2]; 0.15 M NaCl, 25°C): 8.40 | log K3^H ([2]; 0.15 M NaCl, 25°C): 4.18 | log K4^H ([2]; 0.15 M NaCl, 25°C): 2.68 | log K5^H ([2]; 0.15 M NaCl, 25°C): 2.01 | log K6^H ([2]; 0.15 M NaCl, 25°C): 1.36 | log KMnL ([3]; 0.15 M NaCl, 25°C): 14.54 | pMn ([3]; 0.15 M NaCl): 7.95

Compound: [52Mn+2].[Cl-].[Cl-] [[^52Mn]MnCl2, reference compound]
uptake, heart [4]: 16.01 ± 0.1 % ID/g | uptake, kidney [4]: 29.9 ± 9.6 % ID/g | uptake, liver [4]: 9.6 ± 1.9 % ID/g | uptake, pancreas [4]: 4.1 ± 1.1 % ID/g | uptake, spleen [4]: 4.2 ± 0.6 % ID/g | Biodistribution, Blood [5, 11]: 0.60 ± 0.11 % ID/g | Biodistribution, Brain [5, 11]: 0.54 ± 0.26 % ID/g | Biodistribution, Fat [5, 11]: 1.12 ± 0.53 % ID/g | Biodistribution, Femur [5, 11]: 2.42 ± 0.36 % ID/g | Biodistribution, Heart [5, 11]: 12.14 ± 7.31 % ID/g | Biodistribution, Kidney [5, 11]: 38.14 ± 6.06 % ID/g | Biodistribution, Liver [5, 11]: 13.00 ± 6.07 % ID/g | Biodistribution, Muscle [5, 11]: 0.25 ± 0.13 % ID/g | Biodistribution, Skin [5, 11]: 0.31 ± 0.11 % ID/g | Biodistribution, Spleen [5, 11]: 4.83 ± 2.04 % ID/g | Biodistribution, Stomach [5, 11]: 4.78 ± 3.02 % ID/g | Biodistribution, L. Intestine ([5]; mouse, in vivo, 1.5 h): 6.48 ± 1.56 % ID/g | Biodistribution, S. Intestine ([5]; mouse, in vivo, 1.5 h): 14.23 ± 5.70 % ID/g

log K1^H [6]: 9.02(1) | log K2^H [6]: 8.27(1) | log K3^H [6]: 6.06(1) | log K4^H [6]: 5.18(2) | kd at pH = 7.4 ([7]; Mn(II) complex of the chelator): 3.3 × 10^–5 s^–1 | log*KH ([7]; protonation constant of the *[Mn(HL)] intermediate): 2.23 (4) | pMn ([8]; pMn = −log[Mn]free when [Mn^2+] = [L] = 10 μM at pH = 7.4): 7.18 | log KMnL ([8]; stability constant of the Mn(II) complex): 11.93(3)
Compound: c1cc2nc(c1)CNCCNCc1cccc(n1)CNCCNC2 [PYAN, 3,6,10,13-tetraaza-1,8(2,6)-dipyridinacyclotetradecaphane]
log K1^H ([2]; 0.1 M KNO3): 8.99 | log K2^H ([2]; 0.1 M KNO3): 8.22 | log K3^H ([2]; 0.1 M KNO3): 6.03 | log K4^H ([2]; 0.1 M KNO3): 5.34 | log K1^H ([2]; 0.2 M KCl): 9.13 | log K2^H ([2]; 0.2 M KCl): 8.32 | log K3^H ([2]; 0.2 M KCl): 6.12 | log K4^H ([2]; 0.2 M KCl): 5.24 | k1 ([7]; Mn(II) complex of the chelator): 827 ± 54 M^–1 s^–1 | log KMnL ([3]; 0.1 M KNO3): 11.79 | log KMnL ([3]; 0.2 M KCl): 12.5

Compound: NC(=O)CN1CCN(CC(N)=O)Cc2cccc(n2)CN(CC(N)=O)CC1 [PC3AM^H]
k1 [1, 9]: 1.7 × 10^–2 M^–1 s^–1 | kd at pH = 7.4 [1, 9]: 4.3 × 10^–10 s^–1

Compound: O=C([O-])CN(CCN(CC(=O)[O-])CC(=O)[O-])CCN(CC(=O)[O-])CC(=O)[O-].[Mn+2] [Mn-DTPA]
time at which complex dissociation in the presence of Cu^2+ is complete (dead time of the stopped-flow technique) [1]: ≤ 2 ms
